Source: PubChem BioAssay (NCI)
Where “and” joins values, the source holds several entries; their conditions need not be identical. Equal entries are not always repeated.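 Results reflect a 48-hour exposure of cells in 96-well plates to compound at five concentrations. At the GI50, growth is halved. The concentration for full growth arrest is given as TGI.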 Calls of active or inactive are those of the source. No stated cut-off is given here; in the data, active means GI50 below about 0.43 µM; inactive means the rest.

Key:
Experiment in all cases: NCI tumour cell line growth inhibition, 48 h
HOP-18 NSCLC = tested on: HOP-18 NSCLC
RXF-631 renal = tested on: RXF-631 renal
SN12K1 renal = tested on: SN12K1 renal
P388/ADR leukemia = tested on: P388/ADR leukemia
P388 leukemia = tested on: P388 leukemia

## C#CCNC(=O)NC(CCCCNC(=O)OCc1ccccc1)C(=O)OCc1ccccc1 (stereo unspecified)
HOP-18 NSCLC
  TGI: > 68.2 µM

## CCOC(=O)C(CCCNC(=O)OC(C)(C)C)N(Cc1ccc(OC)cc1OC)C(=O)CC(=O)CP(=O)(OCC)OCC (stereo unspecified)
HOP-18 NSCLC
  TGI: > 100 µM
RXF-631 renal
  TGI: > 100 µM

## C[P+]1(c2ccccc2)CCCCC1
RXF-631 renal
  TGI: > 100 µM

## CCc1ccccc1NC(=O)CC1NC(=O)CS1 (stereo unspecified)
HOP-18 NSCLC
  TGI: > 100 µM
RXF-631 renal
  TGI: > 100 µM

## Cc1ccc(NC(=O)/C(C#N)=C/c2ccccc2)c(C)c1
HOP-18 NSCLC
  TGI: > 100 µM

## N#CNC1=NC(N)C(c2nc3ccccc3[nH]2)=C(CCCC(=O)Nc2cccc([N+](=O)[O-])c2)N1 (stereo unspecified)
HOP-18 NSCLC
  TGI: > 100 µM

## C/C(=N\NC(=S)N1CCN(c2ccccn2)CC1)c1ncccn1
SN12K1 renal
  TGI: 1610 nM
P388/ADR leukemia
  TGI: 15.4 nM
HOP-18 NSCLC
  GI50: 4.4 µM
  TGI: 8.39 µM and 20.3 µM
P388 leukemia
  TGI: 15.3 nM

## Cn1nc(-c2ccccc2)c(C(=O)/C=C/c2ccc(Cl)cc2)c(N2CCOCC2)c1=O
HOP-18 NSCLC
  TGI: 17 µM
RXF-631 renal
  TGI: 23.2 µM

## CC(N)CC(=O)O (stereo unspecified)
HOP-18 NSCLC
  TGI: > 5000 µM

## CC1CCC2(C)C(CC=C(C=O)C2(O)C=O)C12CO2 (stereo unspecified)
RXF-631 renal
  TGI: 5.77 µM

## O=C(CO)C1CC2C=CC1C2 (stereo unspecified)
RXF-631 renal
  TGI: > 100 µM

## C=C1C=CC2(Br)OC3CC(C)(Cl)C(Br)CC13C2(C)C (stereo unspecified)
RXF-631 renal
  TGI: > 100 µM

## c1ccc(CN2COc3c(ccc4c5c(ccc34)CN(Cc3ccccc3)CO5)C2)cc1
HOP-18 NSCLC
  TGI: > 100 µM
RXF-631 renal
  TGI: > 100 µM

## CC(=O)CC(=O)CCC(=O)Nc1cccc(C(F)(F)F)c1
HOP-18 NSCLC
  TGI: > 100 µM

## Cc1nnc(N/N=C(/C(=O)C(C#N)c2ccc(Cl)cc2)C(C#N)c2ccc(Cl)cc2)n1N (stereo unspecified)
HOP-18 NSCLC
  TGI: 30 µM
RXF-631 renal
  TGI: 35.4 µM

## COc1c(CC=C(C)C)c(O)c(C(CC(C)C)c2c(O)c(CC=C(C)C)c(O)c(C(C)=O)c2O)c(O)c1C(C)=O (stereo unspecified)
HOP-18 NSCLC
  TGI: 14.7 µM
RXF-631 renal
  TGI: 6.94 µM

## c1ccc(-c2csc3ncn4cnnc4c23)cc1
HOP-18 NSCLC
  TGI: > 100 µM
RXF-631 renal
  TGI: > 100 µM

## COc1c(OC(C)C)cc2cc(O)c(C(=O)NC3Cc4ccc(c(Cl)n4)O[C@@H]4C=C5C#C/C(=C\C#CC6OC56C4OC4CC(C)(O)C(O)C(C)O4)C(OC4CC(O)C(N(C)C)C(C)O4)COC3=O)cc2c1OC (stereo partly specified)
HOP-18 NSCLC
  outcome: inactive
RXF-631 renal
  outcome: inactive

## O=c1[nH]c2ccccc2n1C1CCN(CCCC(c2ccc(F)cc2)c2ccc(F)cc2)CC1
HOP-18 NSCLC
  TGI: 29 µM

## N#C/C(=C1\OC(=N)C(c2ccc(Cl)cc2Cl)C1=O)c1ccc(Cl)cc1Cl (stereo unspecified)
RXF-631 renal
  TGI: > 100 µM

## CC(C)(C)c1cc(C(=O)O)c2c(c1)C(=O)OC2(c1ccccc1)c1ccccc1C(=O)O (stereo unspecified)
HOP-18 NSCLC
  TGI: > 100 µM

## O=C(c1c(O)cc(O)cc1O)C1Cc2ccccc21 (stereo unspecified)
HOP-18 NSCLC
  TGI: > 100 µM

## CC(=O)OCC(CC[CH2][Sn]([Cl])([Cl])[c]1ccccc1)OC(C)=O (stereo unspecified)
HOP-18 NSCLC
  GI50: 16.5 µM
  TGI: 40 µM
